Measured values as given in patent US8772290B2, “Alpha-arylmethoxyacrylate derivative, preparation method thereof, and pharmaceutical composition containing same” (Oscotech Inc., priority 2010, dated 2014).

Each compound was assayed on HIF (assay: Assay for inhibitory activity against HIF activity (HIF1 luciferase reporter cell line)). Conditions: Homo sapiens; HEK293 HIF1 reporter cell line, 1% oxygen, 6 hours, luciferase activity 50% inhibited.
Assay type: cell-based, human
Excerpt: In order to assay the compounds of the present invention for inhibitory activity against HIF activity, the HIF1 reporter plasmid (Panomics) that is designed to control the expression of luciferase by HIF was employed. The HIF1 reporter plasmid and the pTK-Hyg plasmid (Clontech), which carries a hygromycin resistant gene, were co-transfected into the HEK293 cell line (the Korean Cell Line Bank, KCLB No. 21573), derived from the human kidney, with the aid of Effectene transfection reagent (Qiagen). Then, the cells were cultured for 3 weeks on a medium containing 200 μg/mL hygromycin to select transformants resistant to hygromycin. The cell colonies derived from single cells were transferred to 24-well plates to secure a reporter cell line. The cells were seeded at a density of 4×10^4 cells/well into 96-well plates containing DMEM and incubated for 24 hours before treatment with the compounds of the present invention at a concentration of 25 μM, 5 μM, 1 μM, 200 nM, 40 nM, 8 nM, 1.6 nM, 320 pM, 64 pM, 12.8 pM, 2.56 pM, 512 fM, 102 fM, 20.4 fM, or an amount between any two concentrations above as shown in FIGS. 1A to 1C. Under 1% oxygen condition, the cells were incubated for 6 hours and then, the medium was removed. The cells were lyzed by incubation for 5 min with 100 μL of the mixture of Bright-Glo™ luciferase assay buffer and Bright-Glo™ luciferase assay substrate (Promega). The whole cell lysate was transferred to 96-well, white plates (PerkinElmer) and measured for luminescence using Victor™ 3 (PerkinElmer). From the luminescence measurements, IC50 (a concentration of the compound at which luciferase activity was 50% inhibited) was calculated using the GraphPad Prism™ 4 program. The results are summarized in Table 2 and illustrated in FIGS. 1A to 1C.

Row | Compound | IC50
1 | CO/C=C(/C(=O)OC)c1ccccc1COc1cc(/C(C)=N/O)ccc1OC [Compound 37, (E)-methyl 2-(2-((5-((E)-1-(hydroxyimino)ethyl)-2-methoxyphenoxy)-methyl)phenyl)-3-methoxyacrylate] | 7.22 µM
2 | CCCOc1cc(C)cc(OCc2ccccc2/C(=C\OC)C(=O)OC)c1C [Compound 40, (E)-methyl 2-(2-((2,5-dimethyl-3-propoxyphenoxy)methyl)phenyl)-3-methoxyacrylate] | 12.6 µM
3 | CO/C=C(/C(=O)OC)c1ccccc1COc1cc(C)cc(OCc2ccccc2)c1C [Compound 41, (E)-methyl 2-(2-((3-(benzyloxy)-2,5-dimethylphenoxy)methyl)phenyl)-3-methoxyacrylate] | 6.12 µM
4 | CCCO/N=C(\C)c1ccc(OC)c(OCc2ccccc2/C(=C\OC)C(=O)OC)c1 [Compound 42, (E)-methyl 2-(2-((2-methoxy-5-((E)-1-(propoxyimino)ethyl)phenoxy)-methyl)phenyl)-3-methoxyacrylate] | 5.07 µM
5 | CO/C=C(/C(=O)OC)c1ccccc1COc1cc(/C(C)=N/OCCc2ccccc2)ccc1OC [Compound 44, (E)-methyl 2-(2-((2-methoxy-5-((E)-1-(phenylethoxyimino)ethyl)-phenoxy)methyl)phenyl)-3-methoxyacrylate] | 2.18 µM
6 | CO/C=C(/C(=O)OC)c1ccccc1COc1cc(/C(C)=N/Nc2ccccc2)ccc1OC [Compound 48, (E)-methyl 2-(2-((2-methoxy-5-((E)-1-(phenylhydrazono)ethyl)phenoxy)-methyl)phenyl)-3-methoxyacrylate] | 8.58 µM
7 | CO/C=C(/C(=O)OC)c1ccccc1COc1cc(C)c(/C=N/OCC2CO2)cc1C (centres unmarked) [Compound 52, (E)-methyl 2-(2-((2,5-dimethyl-4-((E)-(oxirane-2-ylmethoxyimino)-methyl)phenoxy)methyl)phenyl)-3-methoxyacrylate] | 2.25 µM
8 | CO/C=C(/C(=O)OC)c1ccccc1COc1cc(C)c(/C=N/OCCN2CCCC2)cc1C [Compound 53, (E)-methyl 2-(2-((2,5-dimethyl-4-((E)-(2-(pyrrolidin-1-yl)ethoxyimino)-methyl)phenoxy)methyl)phenyl)-3-methoxyacrylate] | 6.64 µM
9 | CO/C=C(/C(=O)OC)c1ccccc1COc1cc(C)c(/C=N/OCCN2CCCCC2)cc1C [Compound 54, (E)-methyl 2-(2-((2,5-dimethyl-4-((E)-(2-(piperidin-1-yl)ethoxyimino)-methyl)phenoxy)methyl)phenyl)-3-methoxyacrylate] | 6.63 µM
10 | CO/C=C(/C(=O)OC)c1ccccc1COc1cc(C)cc(O)c1C [Compound 55, (E)-methyl 2-(2-((3-hydroxy-2,5-dimethylphenoxy)methyl)phenyl)-3-methoxyacrylate] | 3.69 µM
11 | CO/C=C(/C(=O)OC)c1ccccc1COc1cc(/C(C)=N/OCc2ccc(C)cc2)ccc1OC [Compound 57, (E)-methyl 2-(2-((2-methoxy-5-((E)-1-(4-methylbenzyloxyimino)ethyl)-phenoxy)methyl)phenyl)-3-methoxyacrylate] | 3.94 µM
12 | CO/C=C(/C(=O)OC)c1ccccc1COc1c(F)cc(/C=N/OCc2ccccc2)cc1OC [Compound 61, (E)-methyl 2-(2-((4-((E)-(benzyloxyimino)methyl)-2-fluoro-6-methoxyphenoxy)methyl)phenyl)-3-methoxyacrylate] | 5.54 µM

The next lines start with the values.

Row | IC50 | Compound
13 | 1.67 µM | CO/C=C(/C(=O)OC)c1ccccc1COc1cc(/C(C)=N/OCc2ccccc2)ccc1OC [Compound 38, (E)-methyl 2-(2-((5-((E)-1-(benzyloxyimino)ethyl)-2-methoxyphenoxy)-methyl)phenyl)-3-methoxyacrylate]
14 | 1.41 µM | CO/C=C(/C(=O)OC)c1ccccc1COc1cc(/C=N/OCc2ccccc2)ccc1OC [Compound 39, (E)-methyl 2-(2-((5-((E)-(benzyloxyimino)methyl)-2-methoxyphenoxy)-methyl)phenyl)-3-methoxyacrylate]
15 | 0.96 µM | CCCO/N=C/c1ccc(OC)c(OCc2ccccc2/C(=C\OC)C(=O)OC)c1 [Compound 43, (E)-methyl 2-(2-((2-methoxy-5-((E)-(propoxyimino)methyl)phenoxy)-methyl)phenyl)-3-methoxyacrylate]
16 | 0.11 µM | CO/C=C(/C(=O)OC)c1ccccc1COc1cc(/C=N/OCCc2ccccc2)ccc1OC [Compound 45, (E)-methyl 2-(2-((2-methoxy-5-((E)-1-(phenylethoxyimino)methyl)-phenoxy)methyl)phenyl)-3-methoxyacrylate]
17 | 0.17 µM | CO/C=C(/C(=O)OC)c1ccccc1COc1cc(/C=N/Oc2ccccc2)ccc1OC [Compound 46, (E)-methyl 2-(2-((2-methoxy-5-((E)-1-(phenoxyimino)methyl)phenoxy)-methyl)phenyl)-3-methoxyacrylate]
18 | 0.03 µM | CO/C=C(/C(=O)OC)c1ccccc1COc1cccc(/C=N/Oc2ccccc2)c1 [Compound 47, (E)-methyl 2-(2-((3-((E)-1-(phenoxyimino)methyl)phenoxy)methyl)-phenyl)-3-methoxyacrylate]
19 | 0.01 µM | CCCO/N=C/c1cc(C)c(OCc2ccccc2/C(=C\OC)C(=O)OC)cc1C [Compound 49, (E)-methyl 2-(2-((2,5-dimethyl-4-((E)-(propoxyimino)methyl)phenoxy)-methyl)phenyl)-3-methoxyacrylate]
20 | 0.07 µM | CO/C=C(/C(=O)OC)c1ccccc1COc1cc(C)c(/C=N/OCc2ccccc2)cc1C [Compound 50, (E)-methyl 2-(2-((4-((E)-(benzyloxyimino)methyl)-2,5-dimethylphenoxy)-methyl)phenyl)-3-methoxyacrylate]
21 | 0.02 µM | CO/C=C(/C(=O)OC)c1ccccc1COc1cc(C)c(/C=N/OCCOc2ccccc2)cc1C [Compound 51, (E)-methyl 2-(2-((2,5-dimethyl-4-((E)-(2-phenoxyethoxyimino)methyl)-phenoxy)methyl)phenyl)-3-methoxyacrylate]
22 | 2.14 µM | CO/C=C(/C(=O)OC)c1ccccc1COc1cc(C)cc(OCCOc2ccccc2)c1C [Compound 56, (E)-methyl 2-(2-((2,5-dimethyl-3-(2-phenoxyethoxy)phenoxy)methyl)-phenyl)-3-methoxyacrylate]
23 | 1.26 µM | CO/C=C(/C(=O)OC)c1ccccc1COc1cc(/C=N/OCc2ccc(C)cc2)ccc1OC [Compound 58, (E)-methyl 2-(2-((2-methoxy-5-((E)-1-(4-methylbenzyloxyimino)methyl)-phenoxy)methyl)phenyl)-3-methoxyacrylate]
24 | 0.261 µM | CO/C=C(/C(=O)OC)c1ccccc1COc1ccc(/C=N/OCCc2ccccc2)cc1C [Compound 59, (E)-methyl 2-(2-((2-methyl-4-((E)-(phenylethoxyimino)methyl)phenoxy)-methyl)phenyl)-3-methoxyacrylate]
25 | 0.11 µM | CO/C=C(/C(=O)OC)c1ccccc1COc1ccc(/C=N/OCc2ccc(C)cc2)cc1C [Compound 60, (E)-methyl 2-(2-((2-methyl-4-((E)-(4-methylbenzyloxyimino)methyl)-phenoxy)methyl)phenyl)-3-methoxyacrylate]
26 | 0.2 µM | CO/C=C(/C(=O)OC)c1ccccc1COc1ccc(F)c(OCc2ccccc2)c1F [Compound 62, (E)-methyl 2-(2-((3-(benzyloxy)-2,4-difluorophenoxy)methyl)phenyl)-3-methoxyacrylate]
